Data from the NIST ThermoML archive (doi:10.1016/j.jct.2006.05.008).
“And” between values parts separate entries of the source, which are not always exact repeats. Identical values can stand only once. Numbers after ± are expanded uncertainties.

Experiment: molar heat capacity at constant pressure
Conditions: 101.33 kPa

CCC[n+]1ccn(C)c1.[Br-] [1-methyl-3-propylimidazolium bromide]
Conditions	molar heat capacity at constant pressure
146.32 K, Glass, Small (less than 1 g) adiabatic calorimetry	140.69 ± 0.76 J/K/mol
146.55 K, Crystal, Vacuum adiabatic calorimetry	133.11 ± 0.33 J/K/mol
146.9 K, Crystal, Vacuum adiabatic calorimetry	133.3 ± 0.33 J/K/mol
147.92 K, Crystal, Vacuum adiabatic calorimetry	133.83 ± 0.33 J/K/mol
148.32 K, Metastable crystal, Small (less than 1 g) adiabatic calorimetry	137.4 ± 0.75 J/K/mol
148.96 K, Crystal, Vacuum adiabatic calorimetry	134.32 ± 0.33 J/K/mol
149.12 K, Glass, Small (less than 1 g) adiabatic calorimetry	142.33 ± 0.77 J/K/mol
149.3 K, Crystal, Vacuum adiabatic calorimetry	134.52 ± 0.33 J/K/mol
150.68 K, Crystal, Vacuum adiabatic calorimetry	135.21 ± 0.34 J/K/mol
150.83 K, Metastable crystal, Small (less than 1 g) adiabatic calorimetry	138.65 ± 0.75 J/K/mol
151.02 K, Crystal, Vacuum adiabatic calorimetry	135.37 ± 0.34 J/K/mol
151.92 K, Glass, Small (less than 1 g) adiabatic calorimetry	143.94 ± 0.78 J/K/mol
152.06 K, Crystal, Vacuum adiabatic calorimetry	135.89 ± 0.34 J/K/mol
153.09 K, Crystal, Vacuum adiabatic calorimetry	136.42 ± 0.34 J/K/mol
153.33 K, Metastable crystal, Small (less than 1 g) adiabatic calorimetry	139.92 ± 0.76 J/K/mol
153.43 K, Crystal, Vacuum adiabatic calorimetry	136.63 ± 0.34 J/K/mol
153.5 K, Glass, Small (less than 1 g) adiabatic calorimetry	144.83 ± 0.78 J/K/mol
154.73 K, Glass, Small (less than 1 g) adiabatic calorimetry	145.57 ± 0.78 J/K/mol
154.81 K, Crystal, Vacuum adiabatic calorimetry	137.37 ± 0.34 J/K/mol
155.15 K, Crystal, Vacuum adiabatic calorimetry	137.48 ± 0.34 J/K/mol
155.84 K, Metastable crystal, Small (less than 1 g) adiabatic calorimetry	141.25 ± 0.77 J/K/mol
155.92 K, Glass, Small (less than 1 g) adiabatic calorimetry	146.2 ± 0.79 J/K/mol
156.19 K, Crystal, Vacuum adiabatic calorimetry	138.07 ± 0.34 J/K/mol
157.22 K, Crystal, Vacuum adiabatic calorimetry	138.55 ± 0.34 J/K/mol
157.53 K, Glass, Small (less than 1 g) adiabatic calorimetry	147.21 ± 0.79 J/K/mol
157.57 K, Crystal, Vacuum adiabatic calorimetry	138.81 ± 0.34 J/K/mol
158.35 K, Metastable crystal, Small (less than 1 g) adiabatic calorimetry	142.5 ± 0.77 J/K/mol
158.39 K, Glass, Small (less than 1 g) adiabatic calorimetry	147.68 ± 0.79 J/K/mol
158.74 K, Metastable crystal, Small (less than 1 g) adiabatic calorimetry	142.49 ± 0.77 J/K/mol
158.95 K, Crystal, Vacuum adiabatic calorimetry	139.5 ± 0.34 J/K/mol
159.29 K, Crystal, Vacuum adiabatic calorimetry	139.64 ± 0.34 J/K/mol
160.32 K, Crystal, Vacuum adiabatic calorimetry	140.24 ± 0.34 J/K/mol
160.34 K, Glass, Small (less than 1 g) adiabatic calorimetry	148.83 ± 0.8 J/K/mol
160.85 K, Glass, Small (less than 1 g) adiabatic calorimetry	149.02 ± 0.8 J/K/mol
160.86 K, Metastable crystal, Small (less than 1 g) adiabatic calorimetry	143.76 ± 0.78 J/K/mol
161.31 K, Metastable crystal, Small (less than 1 g) adiabatic calorimetry	143.83 ± 0.78 J/K/mol
161.35 K, Crystal, Vacuum adiabatic calorimetry	140.75 ± 0.34 J/K/mol
161.7 K, Crystal, Vacuum adiabatic calorimetry	141.04 ± 0.34 J/K/mol
163.07 K, Crystal, Vacuum adiabatic calorimetry	141.95 ± 0.34 J/K/mol
163.14 K, Glass, Small (less than 1 g) adiabatic calorimetry	150.42 ± 0.8 J/K/mol
163.31 K, Glass, Small (less than 1 g) adiabatic calorimetry	150.41 ± 0.8 J/K/mol
163.36 K, Metastable crystal, Small (less than 1 g) adiabatic calorimetry	145.06 ± 0.78 J/K/mol
163.42 K, Crystal, Vacuum adiabatic calorimetry	142.16 ± 0.34 J/K/mol
163.82 K, Metastable crystal, Small (less than 1 g) adiabatic calorimetry	145.08 ± 0.78 J/K/mol
164.45 K, Crystal, Vacuum adiabatic calorimetry	143.11 ± 0.34 J/K/mol
165.48 K, Crystal, Vacuum adiabatic calorimetry	144.27 ± 0.34 J/K/mol
165.77 K, Glass, Small (less than 1 g) adiabatic calorimetry	151.85 ± 0.81 J/K/mol
165.82 K, Crystal, Vacuum adiabatic calorimetry	145.11 ± 0.35 J/K/mol
165.87 K, Metastable crystal, Small (less than 1 g) adiabatic calorimetry	146.32 ± 0.79 J/K/mol
165.96 K, Glass, Small (less than 1 g) adiabatic calorimetry	152.04 ± 0.81 J/K/mol
166.33 K, Metastable crystal, Small (less than 1 g) adiabatic calorimetry	146.42 ± 0.79 J/K/mol
167.19 K, Crystal, Vacuum adiabatic calorimetry	146.62 ± 0.35 J/K/mol
167.53 K, Crystal, Vacuum adiabatic calorimetry	147.09 ± 0.35 J/K/mol
168.23 K, Glass, Small (less than 1 g) adiabatic calorimetry	153.27 ± 0.81 J/K/mol
168.38 K, Metastable crystal, Small (less than 1 g) adiabatic calorimetry	147.66 ± 0.79 J/K/mol
168.56 K, Crystal, Vacuum adiabatic calorimetry	147.58 ± 0.35 J/K/mol
168.77 K, Glass, Small (less than 1 g) adiabatic calorimetry	153.64 ± 0.81 J/K/mol
168.85 K, Metastable crystal, Small (less than 1 g) adiabatic calorimetry	147.67 ± 0.79 J/K/mol
169.59 K, Crystal, Vacuum adiabatic calorimetry	148.31 ± 0.35 J/K/mol
169.93 K, Crystal, Vacuum adiabatic calorimetry	148.36 ± 0.35 J/K/mol
170.69 K, Glass, Small (less than 1 g) adiabatic calorimetry	154.76 ± 0.82 J/K/mol
170.88 K, Metastable crystal, Small (less than 1 g) adiabatic calorimetry	149.09 ± 0.8 J/K/mol
171.3 K, Crystal, Vacuum adiabatic calorimetry	149.09 ± 0.35 J/K/mol
171.36 K, Metastable crystal, Small (less than 1 g) adiabatic calorimetry	149.04 ± 0.8 J/K/mol
171.57 K, Glass, Small (less than 1 g) adiabatic calorimetry	155.3 ± 0.82 J/K/mol
171.66 K, Crystal, Vacuum adiabatic calorimetry	149.38 ± 0.35 J/K/mol
172.67 K, Crystal, Vacuum adiabatic calorimetry	149.83 ± 0.35 J/K/mol
173.15 K, Glass, Small (less than 1 g) adiabatic calorimetry	156.22 ± 0.82 J/K/mol
173.73 K, Crystal, Vacuum adiabatic calorimetry	150.42 ± 0.35 J/K/mol
173.86 K, Metastable crystal, Small (less than 1 g) adiabatic calorimetry	151.16 ± 0.81 J/K/mol
174.05 K, Crystal, Vacuum adiabatic calorimetry	150.49 ± 0.35 J/K/mol
174.37 K, Glass, Small (less than 1 g) adiabatic calorimetry	156.97 ± 0.83 J/K/mol
175.42 K, Crystal, Vacuum adiabatic calorimetry	151.1 ± 0.35 J/K/mol
175.61 K, Glass, Small (less than 1 g) adiabatic calorimetry	157.68 ± 0.83 J/K/mol
175.8 K, Crystal, Vacuum adiabatic calorimetry	151.34 ± 0.35 J/K/mol
176.31 K, Metastable crystal, Small (less than 1 g) adiabatic calorimetry	156.29 ± 0.83 J/K/mol
176.79 K, Crystal, Vacuum adiabatic calorimetry	151.84 ± 0.35 J/K/mol
177.16 K, Glass, Small (less than 1 g) adiabatic calorimetry	158.66 ± 0.83 J/K/mol
177.87 K, Crystal, Vacuum adiabatic calorimetry	152.35 ± 0.35 J/K/mol
178.06 K, Glass, Small (less than 1 g) adiabatic calorimetry	159.2 ± 0.84 J/K/mol
178.16 K, Crystal, Vacuum adiabatic calorimetry	152.6 ± 0.35 J/K/mol
178.77 K, Metastable crystal, Small (less than 1 g) adiabatic calorimetry	157.34 ± 0.83 J/K/mol
179.54 K, Crystal, Vacuum adiabatic calorimetry	153.2 ± 0.35 J/K/mol
179.94 K, Crystal, Vacuum adiabatic calorimetry	153.35 ± 0.35 J/K/mol
179.96 K, Glass, Small (less than 1 g) adiabatic calorimetry	160.43 ± 0.84 J/K/mol
180.51 K, Glass, Small (less than 1 g) adiabatic calorimetry	160.72 ± 0.84 J/K/mol
180.91 K, Crystal, Vacuum adiabatic calorimetry	153.97 ± 0.35 J/K/mol
181.24 K, Metastable crystal, Small (less than 1 g) adiabatic calorimetry	158.54 ± 0.83 J/K/mol
182.01 K, Crystal, Vacuum adiabatic calorimetry	154.36 ± 0.35 J/K/mol
182.28 K, Crystal, Vacuum adiabatic calorimetry	154.57 ± 0.35 J/K/mol
182.76 K, Glass, Small (less than 1 g) adiabatic calorimetry	162.21 ± 0.85 J/K/mol
182.96 K, Glass, Small (less than 1 g) adiabatic calorimetry	162.2 ± 0.85 J/K/mol
183.71 K, Metastable crystal, Small (less than 1 g) adiabatic calorimetry	159.86 ± 0.84 J/K/mol
184.08 K, Crystal, Vacuum adiabatic calorimetry	155.44 ± 0.35 J/K/mol
184.32 K, Crystal, Vacuum adiabatic calorimetry	155.34 ± 0.35 J/K/mol
185.31 K, Crystal, Vacuum adiabatic calorimetry	156.02 ± 0.36 J/K/mol
185.4 K, Glass, Small (less than 1 g) adiabatic calorimetry	163.81 ± 0.86 J/K/mol
185.55 K, Glass, Small (less than 1 g) adiabatic calorimetry	163.97 ± 0.86 J/K/mol
186.15 K, Crystal, Vacuum adiabatic calorimetry	156.46 ± 0.36 J/K/mol
186.18 K, Metastable crystal, Small (less than 1 g) adiabatic calorimetry	161.18 ± 0.84 J/K/mol
186.86 K, Crystal, Vacuum adiabatic calorimetry	156.54 ± 0.36 J/K/mol
187 K, Crystal, Vacuum adiabatic calorimetry	156.84 ± 0.36 J/K/mol
187.85 K, Glass, Small (less than 1 g) adiabatic calorimetry	165.5 ± 0.86 J/K/mol
188.22 K, Crystal, Vacuum adiabatic calorimetry	157.39 ± 0.36 J/K/mol
188.33 K, Glass, Small (less than 1 g) adiabatic calorimetry	165.89 ± 0.86 J/K/mol
188.37 K, Crystal, Vacuum adiabatic calorimetry	157.44 ± 0.36 J/K/mol
188.65 K, Metastable crystal, Small (less than 1 g) adiabatic calorimetry	162.48 ± 0.85 J/K/mol
189.74 K, Crystal, Vacuum adiabatic calorimetry	158.15 ± 0.36 J/K/mol and 158.27 ± 0.36 J/K/mol
190.29 K, Crystal, Vacuum adiabatic calorimetry	158.43 ± 0.36 J/K/mol
190.29 K, Glass, Small (less than 1 g) adiabatic calorimetry	167.25 ± 0.87 J/K/mol
190.58 K, Crystal, Vacuum adiabatic calorimetry	158.53 ± 0.36 J/K/mol
191.11 K, Crystal, Vacuum adiabatic calorimetry	158.93 ± 0.36 J/K/mol
191.12 K, Glass, Small (less than 1 g) adiabatic calorimetry	167.98 ± 0.87 J/K/mol
191.12 K, Metastable crystal, Small (less than 1 g) adiabatic calorimetry	163.72 ± 0.86 J/K/mol
192.28 K, Crystal, Vacuum adiabatic calorimetry	159.62 ± 0.36 J/K/mol
192.36 K, Crystal, Vacuum adiabatic calorimetry	159.59 ± 0.36 J/K/mol
192.48 K, Crystal, Vacuum adiabatic calorimetry	159.63 ± 0.36 J/K/mol
192.74 K, Glass, Small (less than 1 g) adiabatic calorimetry	168.95 ± 0.88 J/K/mol
193.11 K, Crystal, Vacuum adiabatic calorimetry	160.08 ± 0.36 J/K/mol
193.58 K, Metastable crystal, Small (less than 1 g) adiabatic calorimetry	165.05 ± 0.86 J/K/mol
193.85 K, Crystal, Vacuum adiabatic calorimetry	160.55 ± 0.36 J/K/mol
193.9 K, Glass, Small (less than 1 g) adiabatic calorimetry	169.91 ± 0.88 J/K/mol
194.35 K, Crystal, Vacuum adiabatic calorimetry	160.92 ± 0.36 J/K/mol
195.18 K, Crystal, Vacuum adiabatic calorimetry	161.48 ± 0.36 J/K/mol
195.19 K, Glass, Small (less than 1 g) adiabatic calorimetry	171.15 ± 0.88 J/K/mol
195.22 K, Crystal, Vacuum adiabatic calorimetry	161.53 ± 0.36 J/K/mol
196.05 K, Metastable crystal, Small (less than 1 g) adiabatic calorimetry	166.26 ± 0.87 J/K/mol
196.59 K, Crystal, Vacuum adiabatic calorimetry	162.52 ± 0.36 J/K/mol
196.68 K, Glass, Small (less than 1 g) adiabatic calorimetry	172.49 ± 0.89 J/K/mol
197.24 K, Crystal, Vacuum adiabatic calorimetry	163.14 ± 0.36 J/K/mol
197.62 K, Glass, Small (less than 1 g) adiabatic calorimetry	173.39 ± 0.89 J/K/mol
197.95 K, Crystal, Vacuum adiabatic calorimetry	163.6 ± 0.36 J/K/mol
198.51 K, Crystal, Vacuum adiabatic calorimetry	164.2 ± 0.37 J/K/mol
198.51 K, Metastable crystal, Small (less than 1 g) adiabatic calorimetry	167.53 ± 0.87 J/K/mol
199.3 K, Crystal, Vacuum adiabatic calorimetry	164.84 ± 0.37 J/K/mol
